Test results reported in PubChem BioAssay (NCI).
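Grown in 96-well plates, cells were treated for 48 hours with each compound at five concentrations. Insufficient inhibition: endpoint recorded as highest concentration tested. The concentration for 50% growth inhibition is given as GI50. TGI is the concentration that stops growth completely.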

Key:
Experiment in all cases: NCI tumour cell line growth inhibition, 48 h
[1] = tested on: NCI-H460 lung
[2] = tested on: IGROV1 ovarian
[3] = tested on: HT29 colon
[4] = tested on: COLO 205 colon
[5] = tested on: K-562 leukemia
[6] = tested on: HCT-15 colon
[7] = tested on: 786-0 renal
[8] = tested on: OVCAR-3 ovarian
[9] = tested on: SNB-19 CNS
[10] = tested on: CAKI-1 renal
[11] = tested on: SF-268 CNS
[12] = tested on: SF-539 CNS
[13] = tested on: UACC-62 melanoma
[14] = tested on: SF-295 CNS
[15] = tested on: SK-MEL-28 melanoma
[16] = tested on: M14 melanoma
[17] = tested on: OVCAR-5 ovarian
[18] = tested on: HCC-2998 colon
[19] = tested on: MDA-MB-231 breast
[20] = tested on: HS 578T breast
[21] = tested on: NCI-H226 lung
[22] = tested on: SNB-75 CNS
[23] = tested on: HCT-116 colon
[24] = tested on: LOX IMVI melanoma
[25] = tested on: DU-145 prostate
[26] = tested on: SW-620 colon
[27] = tested on: A549 NSCLC
[28] = tested on: CCRF-CEM leukemia
[29] = tested on: UO-31 renal
[30] = tested on: SK-OV-3 ovarian
[31] = tested on: NCI/ADR-RES ovarian
[32] = tested on: SK-MEL-5 melanoma
[33] = tested on: A498 renal
[34] = tested on: HOP-62 NSCLC
[35] = tested on: MDA-MB-435
[36] = tested on: BT-549 breast
[37] = tested on: HL-60(TB) leukemia
[38] = tested on: TK-10 renal
[39] = tested on: RXF 393 renal
[40] = tested on: T-47D breast
[41] = tested on: NCI-H23 lung
[42] = tested on: OVCAR-8 ovarian
[43] = tested on: ACHN renal
[44] = tested on: OVCAR-4 ovarian
[45] = tested on: NCI-H522 lung
[46] = tested on: PC-3 prostate
[47] = tested on: SN12C renal
[48] = tested on: MCF7 breast
[49] = tested on: HOP-92 NSCLC
[50] = tested on: U251 CNS
[51] = tested on: KM12 colon
[52] = tested on: RPMI-8226 leukemia
[53] = tested on: SR leukemia
[54] = tested on: SK-MEL-2 melanoma
[55] = tested on: EKVX NSCLC

SMILES: O=S(=O)(NCCCNc1cc(-c2cn(-c3ccccc3)nc2-c2cccc(O)c2)ccn1)c1cccc2ccccc12
- GI50 [1]: 2.89 µM
- TGI [1]: 10.4 µM
- GI50 [2]: 5.86 µM
- TGI [2]: > 100 µM
- GI50 [3]: 0.508 µM
- TGI [3]: 1.71 µM
- GI50 [4]: 1.69 µM
- TGI [4]: 3.29 µM
- GI50 [5]: 0.614 µM
- TGI [5]: 4.48 µM
- GI50 [6]: 1.8 µM
- TGI [6]: 6.59 µM
- GI50 [7]: 1.59 µM
- TGI [7]: 3.57 µM
- GI50 [8]: 5.62 µM
- TGI [8]: > 100 µM
- GI50 [9]: 5.1 µM
- TGI [9]: > 100 µM
- GI50 [10]: 3.37 µM
- TGI [10]: > 100 µM
- GI50 [11]: 3.02 µM
- TGI [11]: 40.8 µM
- GI50 [12]: 2.43 µM
- TGI [12]: 20.2 µM
- GI50 [13]: 2.34 µM
- TGI [13]: 8.38 µM
- GI50 [14]: 1.64 µM
- TGI [14]: 4.32 µM
- GI50 [15]: 2.37 µM
- TGI [15]: 7.33 µM
- GI50 [16]: 2.14 µM
- TGI [16]: 5.3 µM
- GI50 [17]: 8.43 µM
- TGI [17]: > 100 µM
- GI50 [18]: 1.75 µM
- TGI [18]: 3.45 µM
- GI50 [19]: 1.86 µM
- TGI [19]: 6.52 µM
- GI50 [20]: 1.42 µM
- TGI [20]: 8.39 µM
- GI50 [21]: 3.4 µM
- TGI [21]: 45.7 µM
- GI50 [22]: 2.35 µM
- TGI [22]: > 100 µM
- GI50 [23]: 2.8 µM
- TGI [23]: 12.4 µM
- GI50 [24]: 1.56 µM
- TGI [24]: 3.29 µM
- GI50 [25]: 4 µM
- TGI [25]: > 100 µM
- GI50 [26]: 2.75 µM
- TGI [26]: 10 µM
- GI50 [27]: 3.5 µM
- TGI [27]: > 100 µM
- GI50 [28]: 3.12 µM
- TGI [28]: > 100 µM
- GI50 [29]: 2.1 µM
- TGI [29]: 9.32 µM
- GI50 [30]: 4.83 µM
- TGI [30]: > 100 µM
- GI50 [31]: 3.72 µM
- TGI [31]: > 100 µM
- GI50 [32]: 1.57 µM
- TGI [32]: 3.41 µM
- GI50 [33]: 1.09 µM
- TGI [33]: 6.62 µM
- GI50 [34]: 2.45 µM
- TGI [34]: 12.9 µM
- GI50 [35]: 3.48 µM
- TGI [35]: 37.4 µM
- GI50 [36]: 2.47 µM
- TGI [36]: 7.58 µM
- GI50 [37]: 2.7 µM
- TGI [37]: 7.2 µM
- GI50 [38]: 6.11 µM
- TGI [38]: 44.9 µM
- GI50 [39]: 1.18 µM
- TGI [39]: 5.04 µM
- GI50 [40]: 2.14 µM
- TGI [40]: 8.53 µM
- GI50 [41]: 2.89 µM
- TGI [41]: > 100 µM
- GI50 [42]: 5.46 µM
- TGI [42]: > 100 µM
- GI50 [43]: 3.7 µM
- TGI [43]: > 100 µM
- GI50 [44]: 3.06 µM
- TGI [44]: > 100 µM
- GI50 [45]: 2.32 µM
- TGI [45]: 5.66 µM
- GI50 [46]: 2.87 µM
- TGI [46]: 44.9 µM
- GI50 [47]: 4.8 µM
- TGI [47]: > 100 µM
- GI50 [48]: 1.96 µM
- TGI [48]: 5.45 µM
- GI50 [49]: 1.41 µM
- TGI [49]: 7.28 µM
- GI50 [50]: 1.78 µM
- TGI [50]: 13.1 µM
- GI50 [51]: 2.49 µM
- TGI [51]: 7.57 µM
- GI50 [52]: 1.85 µM
- TGI [52]: 7.89 µM
- GI50 [53]: 1.84 µM
- TGI [53]: 7.33 µM
- GI50 [54]: 2.45 µM
- TGI [54]: 6.25 µM
- GI50 [55]: 3.99 µM
- TGI [55]: > 100 µM
